The target in this assay is T1, WT transketolase (WT TK) (Escherichia coli, UniProt P27302).
T1 construct: gene tktA; full length, N-terminal His6 tag (plasmid pQR791), Ni-NTA purified, tag cleavage not mentioned; homodimer of 73-74 kDa monomers; WT expressed in E. coli XL10-Gold, variants in E. coli C321.dA.exp
Put plainly: HPLC of erythrulose formation, initial velocities, Michaelis-Menten fit. Type of assay: biochemical. The settings on record: 50 mM HPA, 1.36 mM ThDP, 5.1 mM MgCl2, 33 mM Tris.HCl, pH 7.0, assay 21 °C, pre-incubated 15 min at 21 °C, standard error in parentheses, read-out: Km (GA). From the text: HPLC of erythrulose formation, initial velocities, Michaelis-Menten fit on WT transketolase (WT TK)

1 compound from article PMC11564776, “Enzyme stabilisation due to incorporation of a fluorinated non-natural amino acid at the protein surface” (Scientific Reports, 2024) can be followed below.

By Km is commonly meant the substrate concentration at which the rate is half of its maximum.

Where two headings read alike, the source gives them in different places.

T1 sequence (P27302 whole entry): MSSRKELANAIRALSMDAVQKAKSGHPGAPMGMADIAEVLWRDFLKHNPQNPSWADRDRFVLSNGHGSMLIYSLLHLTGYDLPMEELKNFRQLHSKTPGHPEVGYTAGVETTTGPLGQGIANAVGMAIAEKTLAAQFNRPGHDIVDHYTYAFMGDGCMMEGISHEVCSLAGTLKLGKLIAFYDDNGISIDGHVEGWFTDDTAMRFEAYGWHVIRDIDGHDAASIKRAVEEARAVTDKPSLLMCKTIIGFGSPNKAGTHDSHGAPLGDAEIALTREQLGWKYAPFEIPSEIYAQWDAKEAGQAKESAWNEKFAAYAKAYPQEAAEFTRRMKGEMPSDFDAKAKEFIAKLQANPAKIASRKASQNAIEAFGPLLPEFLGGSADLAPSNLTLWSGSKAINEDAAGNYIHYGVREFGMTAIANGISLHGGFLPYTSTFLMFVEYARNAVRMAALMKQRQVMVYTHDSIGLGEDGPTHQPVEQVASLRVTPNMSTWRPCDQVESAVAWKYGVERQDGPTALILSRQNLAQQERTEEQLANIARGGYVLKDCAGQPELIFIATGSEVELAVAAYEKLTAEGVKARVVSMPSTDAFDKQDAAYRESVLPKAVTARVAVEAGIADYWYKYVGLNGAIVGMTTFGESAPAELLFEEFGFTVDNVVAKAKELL

As to `O=CCO` [GA], the Km (non-natural amino acid at 316, 84% incorporation with 9% K316F) turned out to be 14 mM and the Michaelis constant (Km) (non-natural amino acid at 316, almost 100% incorporation) was 18 mM.
